Results on two molecules are retold here after paper PMC3102498 (Journal of neuro-oncology, 2010).

Each structure is given as a SMILES string.

For series [1] the following is noted: cited from earlier work.
A short description of series [2]: Phase 2 trial toxicity graded according to NCI CTC version 2.
A short description of series [3]: Sorafenib plasma pharmacokinetics. Type of series: in vivo, human. The conditions noted are these: for sorafenib exposure (AUC0–24) on day 28, patients on vs not on EIAEDs: day 28 of cycle 1, P = 0.0431; for AUC(0-t): AUC0–8 (mean).
Series [4] is described as follows: Temozolomide exposure, continuous daily dosing compared to standard 5-day dosing. Type of series: in vivo, human. Conditions: 50 mg/m2/day continuous compared to 150–200 mg/m2/day for 5 days each month.

As a reminder, the AUC(0-t) is the area under the concentration-time curve up to a stated or last time point. A low value points to low exposure. Broadly, the AUC is the area under the concentration-time curve, a measure of exposure. Lower therefore signals low exposure. In general, Cmax refers to the peak of the concentration-time curve. Regarding `CNC(=O)c1cc(Oc2ccc(NC(=O)Nc3ccc(Cl)c(C(F)(F)F)c3)cc2)ccn1` [Sorafenib], in series [1] (co-administration of rifampin, a CYP3A4 and UGT 1A9 inducer), the “reduction in sorafenib exposure” value is listed as 37%. In series [1] (ketoconazole (CYP3A inhibitor) with low-dose sorafenib 50 mg/day), the “effect of ketoconazole co-administration on sorafenib” value is listed as “did not result in unexpected adverse events or evidence of altered sorafenib pharmacokinetics”. In addition, the “sorafenib exposures, patients on vs not on EIAEDs” value in series [1] (phase I dose escalation study, malignant glioma patients, day one of cycle one) was “comparable”. Further, the “increase of sorafenib exposures over seven days (to steady-state)” value in series [1] (prior pharmacokinetic studies) is listed as 3–4 fold. The “Amylase/lipase, dose modification or discontinuation of sorafenib” value in series [2] (n = 32) is on record as 4 (13) number of patients (percent of. Also, the “Palmer-Plantar Erythrodysesthesia, dose modification or discontinuation of sorafenib” value in series [2] (n = 32) was 3 (9) number of patients (percent of. For the same molecule, the “sorafenib exposure on day 1, patients on vs not on EIAEDs” value in series [3] (day 1 of cycle 1) is reported as “comparable”. Moreover, the “sorafenib exposure (AUC0–24) on day 28, patients on vs not on EIAEDs” value in series [3] is “significantly lower on day 28 for patients on EIAEDs”; in series [3] (listed as sorafenib) it was “significantly higher on day 28 for patients not on EIAEDs”. The area under the curve AUC(0-t) in series [3] (human, plasma, oral, 400 mg, patients not on EIAEDs, day 1, n = 5 per group) was 11100 ng·h/mL; in series [3] (human, plasma, oral, 400 mg, patients not on EIAEDs, day 28, n = 5 per group), 52100 ng·h/mL. The molecule also showed an exposure (AUC) in series [3] (human, plasma, oral, 400 mg, AUC(24) (mean), Non-EIAED patients, day 28 of cycle 1, plasma) of 129000 ng·h/mL. This molecule registered a Cmax in series [3] (human, plasma, oral, 400 mg, C max (mean), Non-EIAED patients, day 28 of cycle 1, plasma) of 8120 ng/mL. The “difference in mean AUC0–8, day 28 vs day 1” value in series [3] (patients not on EIAEDs) is reported as about 5 fold. Moreover, the “sorafenib AUC0–24 day 28 compared to day 1” value is reported as “significantly higher” in series [3] (patients not on EIAEDs, P = 0.0117) and “did not differ significantly” in series [3] (patients on EIAEDs, P = 0.7266).
For the molecule `Cn1nnc2c(C(N)=O)ncn2c1=O` [temozolomide, Temozolomide], the “patients requiring dose modification or discontinuation of daily temozolomide” value in series [2] (32 patients) is listed as “none of the patients”. Moreover, the “greater temozolomide exposure with continuous daily dosing” value in series [4] was 1.4–1.9 fold.
